Consider 12 compounds from US11952330B2, “Antibiotic ammonium compounds and methods for the treatment of bacterial infections” (priority 2019, dated 2024).

In one assay the test system is S. aureus. Nature of the assay: MIC by broth dilution, S. aureus. Conditions: Staphylococcus aureus; Mueller-Hinton broth, overnight 37° C.; Table 1; read-out: MIC (μg/mL) S. aureus. It counts as cell-based. Here is the method:
(§1) The antibacterial efficacy of the ammonium compounds was assessed. Minimum inhibitory concentrations (MICs) were determined by broth dilution method. Dilutions of each compound, ranging from 1 μg/mL to 256 μg/mL (final concentrations) were prepared in Mueller-Hinton broth. Compound dilutions were added to wells of a 96-well plate, with the concentration of the compound increasing 2-fold by row. Each well contained 5×10^5 CFU/ml of target bacterium in a total volume of 100 μl. Plates were incubated overnight at 37° C. The following day, plates were evaluated for a visual change in growth to determine the MIC. The concentration value corresponding to the first row that no longer had visible bacterial growth, as evaluated by turbidity in the wells, was recorded as the MIC. MIC values were representative of at least biological duplicates, each made up of technical triplicates. The antibacterial efficacy of ammonium compounds in the presence of human plasma was assessed. Minimum inhibitory concentrations (MICs) were determined by broth dilution method. Dilutions of each compound, ranging from 1 μg/mL to 256 μg/mL (final concentrations) were prepared in Mueller-Hinton broth. For the plasma containing samples, compound dilutions were made in Mueller-Hinton broth and supplemented with 5% (final %) human plasma (esterases). Compound dilutions were added to wells of a 96-well plate, with the concentration of the compound increasing 2-fold by row. Each well contained 5×10^5 CFU/mL of target bacterium in a total volume of 100 μL. Plates were incubated overnight at 37° C. The following day, plates were evaluated for a visual change in growth to determine the MIC. The concentration value corresponding to the first row that no longer had visible bacterial growth, as evaluated by turbidity in the wells, was recorded as the MIC. MIC values were representative of at least biological duplicates, each made up of technical triplicates.

The next assay deals with A. baumannii. Nature of the assay: MIC by broth dilution, A. baumannii. Type of assay: cell-based. Conditions: Acinetobacter baumannii; Mueller-Hinton broth, overnight 37° C.; Table 1; read-out: MIC (μg/mL) A. baumannii. The method, then: as §1

Consider `CCCCCCCCCCC[N+](CC)(CC)CCOC(=O)c1ccc(NC(=O)c2ccccc2OCCCCCCCC)cc1.[Br-]` [Compound 49, N,N-Diethyl-N-(2-((4-(2-(octyloxy)benzamido)benzoyl)oxy)ethyl)undecan-1-aminium bromide], for which the MIC was less than 3 µg/mL with S. aureus and more than 30 µg/mL in the assay with A. baumannii.

Consider `CCCCCOc1ccccc1C(=O)Nc1ccc(C(=O)OCC[N+](CC)(CC)CCCCC)cc1.[Br-]` [Compound 65, N,N-Diethyl-N-(2-((4-(2-(pentyloxy)benzamido)benzoyl)oxy)ethyl)pentan-1-aminium bromide], for which the MIC with S. aureus is 3 to 30 µg/mL; with A. baumannii, more than 30 µg/mL.

Consider `CCCCCCCCOc1ccccc1C(=O)Nc1ccc(S(=O)(=O)NCC[N+](C)(CC)CC)cc1.[Br-]` [Compound 78, N,N-Diethyl-N-methyl-2-((4-(2-(octyloxy)benzamido)phenyl)sulfonamido)ethan-1-aminium bromide], for which the MIC in the assay on S. aureus and in the assay with A. baumannii was 3 to 30 µg/mL each time.

For `CC[N+](C)(CC)CCOC(=O)c1ccc(NC(=O)c2ccccc2OC2CCC(C)CC2)cc1.[Br-]` (stereo not drawn) [Compound 98, N,N-Diethyl-N-methyl-2-((4-(2-(((1s,4s)-4-methylcyclohexyl)oxy)benzamido)-benzoyl)oxy)ethan-1-aminium bromide], the MIC in the assay on S. aureus and in the assay with A. baumannii was more than 30 µg/mL throughout.

Consider `CCCCCCCCC[N+](CC)(CC)CCOC(=O)c1ccc(NC(=O)c2ccccc2OCCCCCCCC)cc1.[Br-]` [Compound 30, N,N-Diethyl-N-(2-((4-(2-(octyloxy)benzamido)benzoyl)oxy)ethyl)nonan-1-aminium bromide], for which the MIC was 3 to 30 µg/mL in the assay with S. aureus and more than 30 µg/mL in the assay with A. baumannii.

For the compound `CCCCCCCCCCCCCOc1ccccc1C(=O)Nc1ccc(C(=O)OCC[N+](C)(CC)CC)cc1.[Br-]` [Compound 27, N,N-Diethyl-N-methyl-2-((4-(2-(tridecyloxy)benzamido)benzoyl)oxy)ethan-1-aminium bromide], the MIC is less than 3 µg/mL in the assay with S. aureus and more than 30 µg/mL in the assay with A. baumannii.

Regarding `CCCCCCCOc1ccccc1C(=O)Nc1ccc(C(=O)OCC[N+](CC)(CC)CCCC)cc1.[Br-]` [Compound 70, N,N-Diethyl-N-(2-((4-(2-(heptyloxy)benzamido)benzoyl)oxy)ethyl)butan-1-aminium bromide], the MIC with S. aureus was less than 3 µg/mL; in the assay on A. baumannii it was 3 to 30 µg/mL.

For `CCCCCCCOc1ccccc1C(=O)Nc1ccc(C(=O)NC2CC[N+](CCC)(CCC)CC2)cc1.[Br-]` [Compound 76, 4-(4-(2-(Heptyloxy)benzamido)benzamido)-1,1-dipropylpiperidin-1-ium bromide], the MIC in the assay on S. aureus was 3 to 30 µg/mL; in the assay on A. baumannii, more than 30 µg/mL.

Regarding `CCCCCCOc1ccccc1C(=O)Nc1ccc(C(=O)OCC[N+](C)(CC)CC)cc1.[Br-]` [Compound 21, N,N-Diethyl-2-((4-(2-(hexyloxy)benzamido)benzoyl)oxy)-N-methylethan-1-aminium bromide], the MIC is 3 to 30 µg/mL in the assay on S. aureus and more than 30 µg/mL in the assay with A. baumannii.

`CCCCCCCCOc1ccccc1C(=O)Nc1ccc(C(=O)OCC[N+](CC)(CC)CCCCC)cc1.[Br-]` [Compound 35, N,N-Diethyl-N-(2-((4-(2-(octyloxy)benzamido)benzoyl)oxy)ethyl)pentan-1-aminium bromide]: the MIC in the assay on S. aureus is less than 3 µg/mL; in the assay on A. baumannii, 3 to 30 µg/mL.

As for `CCCCCCOc1ccccc1C(=O)Nc1ccc(S(=O)(=O)NCC[N+](CC)(CC)CCCCC)cc1.[Br-]` [Compound 92, N,N-Diethyl-N-(2-((4-(2-(hexyloxy)benzamido)phenyl)sulfonamido)ethyl)pentan-1-aminium bromide], the MIC is 3 to 30 µg/mL in the assay on S. aureus and more than 30 µg/mL in the assay with A. baumannii.

As to `CCCCCCCCOc1ccccc1C(=O)Nc1ccc(C(=O)OCC[N+](CC)(CC)Cc2cccc(C(F)(F)F)c2)cc1.[Br-]` [Compound 40, N,N-Diethyl-2-((4-(2-(octyloxy)benzamido)benzoyl)oxy)-N-(3-(trifluoromethyl)-benzyl)ethan-1-aminium bromide], the MIC is less than 3 µg/mL with S. aureus and more than 30 µg/mL with A. baumannii.
